# Laboratory results from patent publication US5480887A, “Protease inhibitors” (Eli Lilly and Company, priority 1994, dated 1996).
# Where two headings read alike, the source gives them in different places.
# Legend:
# HIV = test: microbe, parasite or virus in culture; format: cell-based; details: XTT, 450 nm, * (n) = average of n assays, read-out: Antiviral Activity IC90
# Procedure: In addition, the compounds described in the present application may be tested using an antiviral cell culture assay as described in Weislow, O.S., J. of National Cancer Institute, 81(8), pages 577-586 (Apr. 19, 1989) herein incorporated by reference.
# This assay compares the viability of HIV-infected cells in a cell culture medium relative to the viability of such cells in the presence of a test compound. The concentration of test compound necessary to inhibit 90% of the virus is then measured using the viability of the cells as an indicator of viral inhibition. This assay is carried out using cell lines that are sensitive to the lyric effects of HIV infection.
# Specifically, this assay utilizes the metabolic reduction of a tetrazolium reagent, 2,3-bis[2-methoxy-4-nitro-5-sulfophenyl]-5-[(phenylamino)carbonyl]-2H-tetrazolium hydroxide (XTT). In the presence of a viable cell, the tetrazolium reagent, XTT, is reduced to provide XTT formazan which may be quantified using colorimetric determination (at 450 nm). The intensity of the chromogenic signal is directly proportional to the concentration of the XTT formazan, thus providing a measure of the quantity of viable cells.
# HIV-1 Protease = target: T1, HIV-1 Protease (Human immunodeficiency virus type 1 group M subtype B, UniProt P04585); test: biochemical; details: for IC50: read-out: Fluorescence Assay IC50 (converted)
# T1 construct: HIV-1 Protease
# Procedure: These compounds may be assayed using two assays: (1) an enzyme inhibition assay, and (2) an antiviral cell culture assay.
# This assay is described in detail in published European Patent Application (EPA) 0 526 009, herein incorporated by reference. Using this assay, a number of the compounds, prepared above, were assayed for HIV protease inhibitory activity.
# The assay is unable to test compounds at less than a concentration of 0.16 ng/mL.
# [1] = Human immunodeficiency virus 1, concentration inhibiting 90% of the viral-induced toxicity
SMILES,IC90 (HIV; [1]) [nM],IC50 (HIV-1 Protease) [nM],IC90 (HIV; concentration inhibiting 90% of the viral-induced toxicity) [nM],"Fluorescence Assay IC50 (HIV-1 Protease; concentration inhibiting 50% of the enzyme, * = calculated average with n number of assays) [ng/mL]",inhibition at 0.00016 µg/mL (HIV-1 Protease; read-out: % inhibition at the stated concentration (ICx (0.16))) [%]
C[C@H]1OCC[C@H]1OC(=O)N[C@@H](CSc1ccccc1)[C@H](O)CN1C[C@H]2CCS[C@H]2C[C@H]1C(=O)NC(C)(C)C [13B-17 mg sample],880,2.72,,,
CC(C)[C@@H]1[C@H](OC(=O)N[C@@H](CSc2ccccc2)[C@H](O)CN2C[C@H]3CCS[C@H]3C[C@H]2C(=O)NC(C)(C)C)CCS1(=O)=O [10B-52 mg sample],9,0.421,,,
C[C@H]1[C@H](OC(=O)N[C@@H](CSc2ccccc2)[C@H](O)CN2C[C@H]3CCS[C@H]3C[C@H]2C(=O)NC(C)(C)C)CCS1(=O)=O [34-Fraction B],32.1,27.4,,,
"CC(C)(C)NC(=O)[C@@H]1C[C@@H]2SCC[C@@H]2CN1C[C@@H](O)[C@H](CSc1ccccc1)NC(=O)C[C@@H]1CCS(=O)(=O)C1 [Example 12, N-t-Butyl-octahydro-5[2R-hydroxy-3R-N(1',1'-dioxo-tetrahydrothiophen-3'R-ylmethylcarbonyl)amino-4-phenylthio-butyl]-(3aR,7aS)-thieno[3,2-c] pyridine-(6S)-carboxamide]",,,96,0.44,
C[C@@H]1OCC[C@@H]1OC(=O)N[C@@H](CSc1ccccc1)[C@H](O)CN1C[C@H]2CCS[C@H]2C[C@H]1C(=O)NC(C)(C)C [13B-26 mg sample],90,,,,71
"CC(C)(C)NC(=O)[C@@H]1C[C@@H]2SCC[C@@H]2CN1C[C@@H](O)[C@H](CSc1ccccc1)NC(=O)[C@@H](CS(=O)(=O)c1ccc2ccccc2c1)NC(=O)C(F)(F)F [Example 30B, N-t-Butyl-octahydro-5[2R-hydroxy-3R-phenylthiomethyl-4-aza-5-oxo-6S-N(trifluoromethylcarbonyl)amino-7-naphth-2-ylsulfonyl-heptyl]-(3aR,7aS)-thieno[3,2-c]pyridine-(6S)-carboxamide]",203,1.96,,,
